The test in a line: Masking the bitterness of chlorhexidine, panel of trained taste assessors (sip-and-spit, labelled magnitude line scale). The class given is in vivo. The conditions noted are these: for difference of the bitterness of the CHXG/inhibitor mixture from the 0.1% CHXG reference (analysis of variance): ANOVA at the 5% level, reference 0.1% CHXG in 8% ethanol-water; for difference of the bitterness of the CHXG/inhibitor mixture from the 0.1% CHXG reference (analysis of variance) / % suppression of bitterness of 0.1% CHXG: n=18; for % suppression of bitterness of 0.1% CHXG: 8% w/w ethanol in water, reference bitterness set at 70 on line scale 0-100; for masking the bitter taste of chlorhexidine compared with xylitol: inhibitors at 2 & 4% w/w, 0.1% CHXG. On the procedure: The efficacy of maltitol, erythritol and xylitol to mask the bitter taste of chlorhexidine digluconate (CHXG) was evaluated using a panel of trained taste assessors.
All test solutions were made up in still mineral water. All tasting sessions were carried out at room temperature (20° C.). Samples were made up w/v (unless otherwise specified) one day before tasting and stored in the refrigerator overnight, then allowed to equilibrate to room temperature the next day before serving.
Eighteen panellists volunteered for the study. The panellists were first screened for their taste acuity using basic identification ranking techniques. 0.20% sodium chloride, 0.054% citric acid, 0.8% sucrose, 0.04% caffeine and 0.15% potassium alum were used to determine their ability to sense and identify saltiness, sourness, sweetness, bitterness and astringency, respectively. The detection and identification thresholds for bitterness were then measured using eight increasing concentrations of quinine hydrochloride (over a range of 0-0.0012%). Panellists were also instructed to rank four random concentrations of caffeine in increasing order of bitterness intensity. A similar experiment was done using quinine hydrochloride. All panellists performed well in those tasks.
The screened panellists were then asked to assess the bitterness intensities of the chlorhexidine mixtures using a “Labelled magnitude line scale” (LMS) as defined by Green et al., Chemical Senses, 1996, 21, 323-334. Solutions were made up containing the bitter inhibitors, 0.1% w/w CHXG, 8% w/w ethanol in water. The following concentrations of inhibitors were used:
Two samples were presented at any one time, one of which was the reference (0.1% CHXG in 8% ethanol-water). Sample presentation was randomised and was duplicated during the course of the study.
The “sip-and-spit” method was used for tasting CHXG solutions. Panellists were instructed to sip 5 ml sample, swirl it around their mouth and spit it out immediately before judging its bitterness intensity. This technique was expected to take 3-4 seconds.
Panellists were instructed to taste the reference first and memorise its bitter intensity. This intensity was assigned the number 70 on the line scale marked 0-100. Panellists were asked to wait until they could no longer feel any bitterness in their mouths (approximately 10 min) before tasting the second solution, whose intensity they then ranked in proportion to the intensity of the reference on the same line scale. Panellists were provided with mineral water to cleanse their palates.
Analysis of Variance (ANOVA) at the 5% level of significance was performed using the EXCEL software to find out whether there were any significant differences between the CHXG reference and the CHXG/inhibitor mixtures. A Fisher Least Significant Difference (LSD) test (O'Mahony M, 1986, Sensory Evaluation of Food—Statistical Methods and Procedures, Marcel Dekker, Inc, New York) was carried out on those samples where a significant difference had been found, to identify which sample means differ from the reference.

The mark [1] stands for this setting: inhibitor 2% w/w in 0.1% w/w CHXG.
[2] abbreviates: inhibitor 4% w/w in 0.1% w/w CHXG.

The structures appear in SMILES notation.

On to `OC[C@@H](O)[C@@H](O)CO` [Erythritol], for which the “difference of the bitterness of the CHXG/inhibitor mixture from the 0.1% CHXG reference (analysis of variance)” value is reported as “significantly different” and the “masking the bitter taste of chlorhexidine compared with xylitol” value is “more effective than xylitol”. The “% suppression of bitterness of 0.1% CHXG” value under setting [1] was found to be 29.2%. For the same compound, the “% suppression of bitterness of 0.1% CHXG” value under setting [2] was 28.2%.
The like results for `OC[C@@H](O)[C@@H](O[C@H]1O[C@H](CO)[C@@H](O)[C@H](O)[C@H]1O)[C@H](O)[C@@H](O)CO` [Maltitol] were, in that order, “significantly different”, “more effective than xylitol”, 26.9% and 32.6%.
In the case of `OC[C@@H](O)[C@H](O)[C@@H](O)CO` [Xylitol, reference compound], the “% suppression of bitterness of 0.1% CHXG” value runs as follows: under setting [1], 14.3%; under setting [2], 13.6%.

The values above are taken from US20070274929A1, “ORAL COMPOSITION COMPRISING CHLORHEXIDINE AND MALTITOL OR ERYTHRITOL OR A MIXTURE THEREOF” (priority 2000, published 2007).
